# Assay results published in ChEMBL document CHEMBL1131928, “On the relationship of OSW-1 to the cephalostatins” (1999).
# pEC50: −log10 of the molar value. Counter-ions that a name gives are not always drawn.
# Tests used:
# Format in all cases: functional
# Settings in all cases: Homo sapiens, read-out: ED50 (the source's name)
# [1] = test system: PC-3; test: Cytotoxicity against PC-3 cell line in the purdue cell culture screen was determined
# [2] = test system: MCF7; test: Cytotoxicity against MCF-7 cell line in the purdue cell culture screen was determined
# [3] = test system: NCI/ADR-RES; test: Cytotoxicity against MCF-7ADR cell line in the purdue cell culture screen was determined
# [4] = test system: HT-29; test: Cytotoxicity against HT-29 cell line in the purdue cell culture screen was determined
# [5] = test system: A498; test: Cytotoxicity against A-498 cell line in the purdue cell culture screen was determined
# [6] = test system: MIA PaCa-2; test: Cytotoxicity against PACA-2 cell line in the purdue cell culture screen was determined
# [7] = test system: A549; test: Cytotoxicity against A-549 cell line in the purdue cell culture screen was determined
# [8] = test system: MCF7R; test: Cytotoxicity against MCF-7R cell line in the purdue cell culture screen was determined
SMILES,pEC50 [1],pEC50 [2],pEC50 [3],pEC50 [4],pEC50 [5],pEC50 [6],pEC50 [7],pEC50 [8]
CC(C)CCC1([C@@H](C)[C@@]2(O)[C@H](O)C[C@@]3(C)C4CC[C@@]5(C)C[C@@H](O)CC[C@]5(C)[C@@]4(C)CC[C@]23C)OCCO1 (stereo not given in full),4.41,5.62,4.55,5.52,5.77,5.19,4.89,5.15
CC(C)CCC(=O)[C@@H](C)[C@@]1(O)C(=O)C[C@@]2(C)C3CC[C@@]4(C)C[C@@H](O)CC[C@]4(C)[C@@]3(C)CC[C@@]21C (stereo not given in full),5.25,3.89,4.00,5.80,4.71,4.52,3.98,4.26
CC(C)CCC1([C@@H](C)[C@@]2(O)C(=O)C[C@@]3(C)C4CC[C@@]5(C)C[C@@H](O)CC[C@]5(C)[C@@]4(C)CC[C@@]32C)OCCO1 (stereo not given in full),4.37,5.25,4.89,5.68,5.62,4.64,4.77,5.19
CO/N=C1\C[C@]2(C)CCC3C4=C[C@@H]5OC6(CC(C)(C)CO6)[C@@H](C)[C@@H]5[C@@]4(C)[C@H](O)C[C@]3(C)[C@@]2(C)C[C@H]1N (stereo not given in full),4.85,4.85,4.12,5.11,5.51,4.85,5.23,–
CC(=O)O[C@H]1CC[C@@]2(C)[C@@](C)(CCC3[C@]2(C)CC[C@]2(C)[C@@](O)([C@H](C)C4(CCC(C)C)OCCO4)[C@H](O)C[C@@]32C)C1 (stereo not given in full),4.77,4.64,4.38,4.54,4.80,4.64,4.52,4.51
CC(C)CCC1([C@@H](C)[C@@]2(O)[C@@H](O)C[C@@]3(C)C4CC[C@@]5(C)C[C@@H](O)CC[C@]5(C)[C@@]4(C)CC[C@]23C)OCCO1 (stereo not given in full),6.40,–,–,6.24,5.89,5.92,6.47,5.80
CC(C)CCC1([C@@H](C)[C@@]2(O)[C@@H](O)C[C@@]3(C)C4CC[C@@]5(C)Cc6nc7c(nc6C[C@]5(C)[C@@]4(C)CC[C@]23C)C[C@]2(C)CCC3C4=C[C@@H]5OC6(CC(C)(C)CO6)[C@@H](C)[C@@H]5[C@@]4(C)[C@H](O)C[C@]3(C)[C@@]2(C)C7)OCCO1 (stereo not given in full),6.52,–,–,< 5.59,5.51,< 5.66,7.00,6.00
CC(C)CCC1([C@@H](C)[C@@]2(O)[C@@H](O)C[C@@]3(C)C4CC[C@]5(C)Cc6nc7c(nc6C[C@]5(C)[C@]4(C)CC[C@]23C)C[C@@]2(C)CCC3[C@@H]4C[C@@H]5OC6(O[C@](C)(CO)C[C@H]6O)[C@@H](C)[C@]5(O)[C@@]4(C)[C@H](O)C[C@]3(C)[C@@]2(C)C7)OCCO1 (stereo not given in full),5.96,–,–,6.66,5.96,5.62,5.54,6.21
CC(=O)O[C@H]1CC[C@@]2(C)C(=CCC3[C@]4(C)CC(=O)[C@](O)([C@H](C)C5(CCC(C)C)OCCO5)[C@@]4(C)CC[C@@]32C)C1 (stereo not given in full),5.43,4.55,4.59,6.30,5.55,5.66,4.82,4.96
CC(C)CCC(=O)[C@@H](C)[C@@]1(O)[C@H](O)C[C@@]2(C)C3CC[C@@]4(C)C[C@@H](O)CC[C@]4(C)[C@@]3(C)CC[C@]12C (stereo not given in full),4.37,5.25,4.89,5.68,5.62,4.64,4.77,5.19
CC(=O)O[C@H]1CC[C@@]2(C)[C@@](C)(CCC3[C@]2(C)CC[C@@]2(C)[C@@]3(C)CC(=O)[C@]2(O)[C@H](C)C2(CCC(C)C)OCCO2)C1 (stereo not given in full),3.24,4.41,4.15,5.12,4.82,4.06,4.51,4.05
CC(=O)O[C@H]1CC[C@@]2(C)C(=CCC3[C@]4(C)C[C@H](O)[C@](O)([C@H](C)C5(CCC(C)C)OCCO5)[C@@]4(C)CC[C@@]32C)C1 (stereo not given in full),5.00,< 4.22,< 4.19,5.32,5.55,4.96,4.82,4.48
C[C@@H]1[C@]2(O[C@H]3C=C4[C@@H]5CC[C@H]6Cc7nc8c(nc7C[C@]6(C)[C@H]5C[C@@H](O)[C@]4(C)[C@]31O)C[C@@H]1CC[C@H]3C4=CC[C@@H]5[C@H](C)[C@@]6(OC[C@]45C(=O)C[C@@H]3[C@@]1(C)C8)OC(C)(C)C[C@H]6O)O[C@](C)(CO)C[C@H]2O [CEPHALOSTATIN 1],5.85,–,5.39,–,–,5.40,–,–
COc1cccc2c1C(=O)c1c(O)c3c(c(O)c1C2=O)C[C@@](O)(C(=O)CO)C[C@@H]3O[C@H]1C[C@H](N)[C@H](O)[C@H](C)O1 [DOXORUBICIN HYDROCHLORIDE],5.24,5.47,5.82,5.43,5.46,5.20,5.21,6.22
